# From article PMC5520057, “Modulation of nongenomic activation of PI3K signalling by tetramerization of N-terminally-cleaved RXRα” (Nature Communications, 2017)
# “And” between values parts separate entries of the source, which are not always exact repeats. Equal entries are not always repeated.
# Tests used:
# [1] = system: p85α-ΔiSH2 / tRXRα interaction; experiment: p85α-ΔiSH2 interaction with tRXRα; format: cell-based
# Protocol: (§1) Cell lysates were then prepared and incubated with bis[sulfosuccinimidyl] suberate (BS3, Pierce) dissolved in dimethyl sulfoxide to a final concentration of 1 mM. The reactions were stopped with protein gel loading buffer. Samples were resolved by SDS/PAGE in 8% acrylamide gels and protein bands were visualized by western blotting.
# tRXRα = experiment: Subcellular localization of tRXRα, immunostaining; format: cell-based; conditions: MCF-7 cells cotransfected with p85α; TNFα (10 ng ml^−1) for 30 min; confocal microscopy
# Protocol: (§2) Cells mounted on glass slides or tumour tissue frozen sections (5-μm-thick) were washed with PBS and fixed in 4% paraformaldehyde (PFA) for 15 min and permeabilized with PBS containing 0.1% Triton X-100 for 15 min. Fixed cells or tumour tissues were blocked with 5 mg ml^−1 BSA in PBS for 30 min at room temperature, followed with incubation with primary antibodies for 3 h and secondary antibodies at room temperature for 1 h and co-stained with 4′6′-diamidino-2-phenylindole (DAPI) to visualize nuclei. The images were taken under an LSM-510 confocal laser scanning microscope system (Carl Zeiss).
# tRXRα/R316E [2] = experiment: Subcellular localization of tRXRα/R316E, immunostaining; format: cell-based; conditions: HEK293T cells; TNFα (10 ng ml^−1) for 30 min; confocal microscopy
# Protocol: as §2
# p85α / tRXRα interaction = experiment: coIP, p85α with tRXRα; format: cell-based; conditions: HEK293T cells; TNFα (10 ng ml^−1) for 1 h; coIP anti-Myc
# Protocol: (§4) For coIP assay[29], HEK293T cells grown in 10 cm dishes were transfected with various plasmids. Cells were lysed in 1 ml of lysis buffer (20 mM Tris (pH 7.5), 150 mM NaCl, 1% Triton X-100, 1 mM EDTA, 30 mM NaF, 2 mM sodium pyrophosphate) with a cocktail of proteinase inhibitors (Roche). Lysates were incubated with the appropriate antibody for 12 h at 4 °C and subsequently incubated with protein A-Sepharose beads for 1 h. The immunoprecipitates were collected and washed three times with lysis buffer. The protein–antibody complexes recovered on beads were subjected to immunoblotting using appropriate antibodies after separation by SDS-PAGE. Input represents 5% of cell lysates used for coIP assays.
# [3] = system: p85α / tRXRα/R316E interaction; experiment: coIP, p85α with tRXRα/R316E; format: cell-based; conditions: HEK293T cells; TNFα (10 ng ml^−1) or 9-cis-RA (10^−7 M) for 1 h; coIP anti-Myc
# Protocol: as §4
# RXRα [4] = experiment: Subcellular localization of RXRα, immunostaining; format: cell-based; conditions: MCF-7 cells; TNFα (10 ng ml^−1) for 30 min; confocal microscopy
# Protocol: as §2
# [5] = system: p85α-BCR / RXRα-LBD/W305Q interaction; conditions: HEK293T cells; with or without 9-cis-RA (10^−7 M)
# Protocol: (§3) For coIP assay, HEK293T cells grown in 10 cm dishes were transfected with various plasmids. Cells were lysed in 1 ml of lysis buffer (20 mM Tris (pH 7.5), 150 mM NaCl, 1% Triton X-100, 1 mM EDTA, 30 mM NaF, 2 mM sodium pyrophosphate) with a cocktail of proteinase inhibitors (Roche). Lysates were incubated with the appropriate antibody for 12 h at 4 °C and subsequently incubated with protein A-Sepharose beads for 1 h. The immunoprecipitates were collected and washed three times with lysis buffer. The protein–antibody complexes recovered on beads were subjected to immunoblotting using appropriate antibodies after separation by SDS-PAGE. Input represents 5% of cell lysates used for coIP assays.
# [6] = system: RXRα-A/B / RXRα-LBD interaction; experiment: coIP, N/C interaction RXRα-A/B with RXRα-LBD; format: cell-based; conditions: HepG2 cells, coIP with anti-HA antibody; one of two similar experiments
# RXRα-LBD/R316E = experiment: Non-denaturing gel electrophoresis, R316E mutant; format: biochemical, human; conditions: 9-cis-RA (0.5 μM) or K-80003 (20 μM), 3 h at 4 °C
# Protocol: The human RXRα LBD (residues Thr223 to Thr462) cloned as an N-terminal histidine-tagged fusion protein in pET15b expression vector was expressed in Escherichia coli BL21 strain (Stratagene). After sonication, cell extract was incubated with the His60 Ni Superflow resin, and His-tagged RXRα-LBD-resin complexes were washed, eluted and concentrated to 5 mg ml^−1 for subsequent trails. For crystallization experiment, bovine thrombin (Sigma) was used to cleave the His tag from the purified His-tagged RXRα-LBD. The resulting His tag was removed on the Resource-Q column (GE) using 0.1–1 M NaCl gradient and the Tris-Cl pH 8 buffer. RXRα-LDB was further purified using gel filtration on a Superdex 200 2660 column (GE) pre-equilibrated with the 75 mM NaCl, 20 mM Tris-Cl buffer (pH 8).
# RXRα-LBD = experiment: BS3 crosslinking, transfected RXRα-LBD; format: cell-based; conditions: HepG2 cells; 9-cis-RA (10^−7 M) or K-80003 (5 × 10^−6 M) for 6 h; BS3 1 mM; western blotting
# Protocol: as §1
# [7] = system: p85α / tRXRα/F313A interaction; experiment: coIP, p85α with tRXRα/F313A; format: cell-based; conditions: HEK293T cells; 9-cis-RA (10^−7 M) for 1 h; coIP anti-Myc
# Protocol: as §4
# [8] = system: RXRα-A/B / RXRα-LBD/W305Q interaction; experiment: coIP, N/C interaction RXRα-A/B with RXRα-LBD/W305Q; format: cell-based; conditions: HEK293T cells; 9-cis-RA (10^−7 M)
# Protocol: as §4
# tRXRα/R316E [9] = experiment: BS3 crosslinking, tRXRα/R316E; format: cell-based; conditions: MCF-7 cells, 9-cis-RA (10^−7 M) or K-80003 (5 × 10^−6 M) for 6 h
# Protocol: as §1
# [10] = system: p85α-BCR / RXRα-LBD interaction; experiment: coIP, p85α-BCR with RXRα-LBD; format: cell-based; conditions: 9-cis-RA (10^−7 M), one of two similar experiments
# Protocol: as §3
# RXRα [11] = system: RXRα; parameters: method as in PMID 10970886, PMID 9811539; conditions: cited from earlier work
# Description: In addition to acting as heterodimeric partners of some nuclear receptors, RXRα can form homodimers[18] that trigger specific signalling pathways. A unique property of RXRα is an auto-repressive mechanism involving homotetramerization, in which a ‘dimer-of-dimers’ pack in a bottom-to-bottom manner, with H12 from each monomer invading (and invaded by) a neighbouring domain across the tetramer interface. This pairwise ‘exchange of arms’ enables each monomer to bind to and occlude the coregulator-binding groove of its neighbour. Some molecules hav ...
# [12] = system: p85α-BCR / tRXRα interaction; experiment: coIP, p85α-BCR with tRXRα; format: cell-based; conditions: 9-cis-RA (10^−7 M), one of two similar experiments
# Protocol: as §4
# tRXRα/F313A = experiment: BS3 crosslinking, tRXRα/F313A; format: cell-based; conditions: MCF-7 cells, 9-cis-RA (10^−7 M) or K-80003 (5 × 10^−6 M) for 6 h
# Protocol: as §1
# Myc-RXRα-LBD (human) = experiment: cross-linking; cells (HepG2, HEK293T, MCF-7) transfected for 24 h, treated with 9-cis-RA (10^-7 M) and/or K-80003 (5 x 10^-6 M) for 6 h; lysates or fractions incubated with 1 mM BS3, SDS-PAGE and western blotting
# [13] = target: the molecule itself; experiment: crystal structure; RXRα-LBD (0.35 mM) cocrystallized with K-80003, 2.6 Å; tetramer (dimer of dimers) with six K-80003 bound
# [14] = target: the molecule itself; experiment: native gel or EMSA; purified RXRα-LBD or mutant (0.2 μg/μl) incubated with DMSO, 9-cis-RA (0.5 μM) and/or K-80003 (20 μM) for 3 h at 4 °C; 8% non-denaturing PAGE, Coomassie staining
# [15] = target: the molecule itself; experiment: cross-linking; cells (HepG2, HEK293T, MCF-7) transfected for 24 h, treated with 9-cis-RA (10^-7 M) and/or K-80003 (5 x 10^-6 M) for 6 h; lysates or fractions incubated with 1 mM BS3, SDS-PAGE and western blotting
# Sequence of Myc-RXRα-LBD (domain or fragment) (P19793 whole entry, the tested form may be a part): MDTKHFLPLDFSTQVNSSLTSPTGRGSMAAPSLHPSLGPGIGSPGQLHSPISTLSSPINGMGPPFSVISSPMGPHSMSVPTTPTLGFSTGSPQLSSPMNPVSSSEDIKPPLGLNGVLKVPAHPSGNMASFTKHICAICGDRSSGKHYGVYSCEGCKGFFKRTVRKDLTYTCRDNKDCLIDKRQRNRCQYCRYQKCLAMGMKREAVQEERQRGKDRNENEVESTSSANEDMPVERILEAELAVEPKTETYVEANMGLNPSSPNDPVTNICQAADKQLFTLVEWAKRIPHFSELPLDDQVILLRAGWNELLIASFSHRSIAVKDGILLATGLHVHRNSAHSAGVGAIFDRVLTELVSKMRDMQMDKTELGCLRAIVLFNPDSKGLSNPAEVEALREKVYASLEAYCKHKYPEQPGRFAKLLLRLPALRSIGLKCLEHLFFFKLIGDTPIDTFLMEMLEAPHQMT
molecule,measurement,setting,value
"O=C(CCCCCCC(=O)ON1C(=O)CC(S(=O)(=O)O)C1=O)ON1C(=O)CC(S(=O)(=O)O)C1=O (stereo not shown) [BS3, bis[sulfosuccinimidyl] suberate]",9-cis-RA-induced tRXRα interaction with p85α-ΔiSH2,"[1]; HepG2 cells, K-80003 and/or 9-cis-RA, then BS3 crosslinking, western blotting",potently inhibited
TNFα,tRXRα found in the cytoplasm of cells,tRXRα,> 65%
same,colocalization of tRXRα/R316E with p85α,tRXRα/R316E [2],lack of colocalization of the tRXRα/R316E mutant with p85α in the absence or presence of TNFα
same,interaction of tRXRα with full-length p85α,p85α / tRXRα interaction,tRXRα interacted with the full-length p85α in the presence of TNFα
same,interaction of tRXRα/R316E with p85α,[3],could not bind to p85α either in the absence or presence of TNFα or 9-cis-RA
same,effect on nuclear localization of RXRα,RXRα [4],no effect on the nuclear localization of RXRα
"CC1=C(/C=C/C(C)=C\C=C\C(C)=C\C(=O)O)C(C)(C)CCC1 [9-cis-RA, 9-cis-retinoic acid]",tRXRα interaction with p85α-ΔiSH2 with cotransfected RXRα-A/B,"[1]; HEK293T cells, 9-cis-RA (10^−7 M) for 6 h, coIP anti-Myc",inhibited 9-cis-RA-induced interaction of tRXRα with p85α-ΔiSH2
same,binding of RXRα-LBD/W305Q with p85α-BCR,[5],impaired the binding of RXRα-LBD with p85α-BCR either in the presence or absence of 9-cis-RA
same,effect on RXRα-A/B / RXRα-LBD interaction,[6],inhibited by 9-cis-RA in a dose-dependent manner
same,effect on oligomeric state of RXRα-LBD/R316E,RXRα-LBD/R316E,exhibited mainly as a tetramer independent of the presence of either 9-cis-RA or K-80003
same,crosslinked RXRα-LBD species,RXRα-LBD,only monomer and homodimer
same,interaction of tRXRα/F313A with p85α,[7],constitutive and 9-cis-RA-independent interaction with p85α
same,effect on RXRα-A/B / RXRα-LBD/W305Q interaction,[8],could still bind to the RXRα-A/B protein in a 9-cis-RA sensitive manner similar to the wild-type RXRα-LBD
same,oligomeric state of tRXRα/R316E,tRXRα/R316E [9],strong tetrameric species of tRXRα/R316E but not tRXRα/F313A independent of the presence of 9-cis-RA or K-80003
same,effect on p85α-BCR interaction with RXRα-LBD,[10],enhancing effect of 9-cis-RA on p85α-BCR interaction
same,interaction of tRXRα/R316E with p85α,[3],could not bind to p85α either in the absence or presence of TNFα or 9-cis-RA
same,effect on homotetramers,RXRα [11],dissociation of homotetramers into homodimers
same,effect on p85α-BCR interaction with tRXRα,[12],enhancing effect of 9-cis-RA on p85α-BCR interaction
same,oligomeric state of tRXRα/F313A,tRXRα/F313A,strong tetrameric species of tRXRα/R316E but not tRXRα/F313A independent of the presence of 9-cis-RA or K-80003
Myc-RXRα-LBD (domain or fragment),stoichiometry N,Myc-RXRα-LBD (human),2 and 4
"RXRα-LBD (His tag cleaved, for crystallization) (domain or fragment, human, UniProt P19793 223-462, looked up) TSSANEDMPVERILEAELAVEPKTETYVEANMGLNPSSPNDPVTNICQAADKQLFTLVEWAKRIPHFSELPLDDQVILLRAGWNELLIASFSHRSIAVKDGILLATGLHVHRNSAHSAGVGAIFDRVLTELVSKMRDMQMDKTELGCLRAIVLFNPDSKGLSNPAEVEALREKVYASLEAYCKHKYPEQPGRFAKLLLRLPALRSIGLKCLEHLFFFKLIGDTPIDTFLMEMLEAPHQMT",stoichiometry N,[13],4
"His-RXRα-LBD (domain or fragment, human, UniProt P19793 223-462, looked up) TSSANEDMPVERILEAELAVEPKTETYVEANMGLNPSSPNDPVTNICQAADKQLFTLVEWAKRIPHFSELPLDDQVILLRAGWNELLIASFSHRSIAVKDGILLATGLHVHRNSAHSAGVGAIFDRVLTELVSKMRDMQMDKTELGCLRAIVLFNPDSKGLSNPAEVEALREKVYASLEAYCKHKYPEQPGRFAKLLLRLPALRSIGLKCLEHLFFFKLIGDTPIDTFLMEMLEAPHQMT",stoichiometry N,[14],2 and 4
"His-RXRα-LBD/R316E (domain or fragment, human, UniProt P19793 223-462, looked up, source: bacteria expressed, purified) TSSANEDMPVERILEAELAVEPKTETYVEANMGLNPSSPNDPVTNICQAADKQLFTLVEWAKRIPHFSELPLDDQVILLRAGWNELLIASFSHESIAVKDGILLATGLHVHRNSAHSAGVGAIFDRVLTELVSKMRDMQMDKTELGCLRAIVLFNPDSKGLSNPAEVEALREKVYASLEAYCKHKYPEQPGRFAKLLLRLPALRSIGLKCLEHLFFFKLIGDTPIDTFLMEMLEAPHQMT",stoichiometry N,[14],4
"Myc-tRXRα (domain or fragment, human, UniProt P19793 81-462, looked up, retinoid X receptor alpha lacking the N-terminal 80 amino acids (deletion of 60 plus an additional 20 amino acids); also called truncated RXRα; N-terminally-cleaved RXRα; source: HEK293T, HepG2, transfected, in lysate) TTPTLGFSTGSPQLSSPMNPVSSSEDIKPPLGLNGVLKVPAHPSGNMASFTKHICAICGDRSSGKHYGVYSCEGCKGFFKRTVRKDLTYTCRDNKDCLIDKRQRNRCQYCRYQKCLAMGMKREAVQEERQRGKDRNENEVESTSSANEDMPVERILEAELAVEPKTETYVEANMGLNPSSPNDPVTNICQAADKQLFTLVEWAKRIPHFSELPLDDQVILLRAGWNELLIASFSHRSIAVKDGILLATGLHVHRNSAHSAGVGAIFDRVLTELVSKMRDMQMDKTELGCLRAIVLFNPDSKGLSNPAEVEALREKVYASLEAYCKHKYPEQPGRFAKLLLRLPALRSIGLKCLEHLFFFKLIGDTPIDTFLMEMLEAPHQMT",stoichiometry N,[15],4
"Myc-tRXRα/R316E (domain or fragment, human, UniProt P19793 81-462, looked up, retinoid X receptor alpha lacking the N-terminal 80 amino acids; source: MCF-7, HEK293T, transfected, in lysate) TTPTLGFSTGSPQLSSPMNPVSSSEDIKPPLGLNGVLKVPAHPSGNMASFTKHICAICGDRSSGKHYGVYSCEGCKGFFKRTVRKDLTYTCRDNKDCLIDKRQRNRCQYCRYQKCLAMGMKREAVQEERQRGKDRNENEVESTSSANEDMPVERILEAELAVEPKTETYVEANMGLNPSSPNDPVTNICQAADKQLFTLVEWAKRIPHFSELPLDDQVILLRAGWNELLIASFSHESIAVKDGILLATGLHVHRNSAHSAGVGAIFDRVLTELVSKMRDMQMDKTELGCLRAIVLFNPDSKGLSNPAEVEALREKVYASLEAYCKHKYPEQPGRFAKLLLRLPALRSIGLKCLEHLFFFKLIGDTPIDTFLMEMLEAPHQMT",stoichiometry N,[15],4
